Data on 19 compounds can be found in patent publication US10017520B2, “Myc modulators and uses thereof” (Massachusetts Institute of Technology, priority 2014, dated 2018).

As a reminder, the IC50 is the concentration needed to halve the response being measured.

Molecules are shown by their SMILES. A value given as a limit tells only on which side of the number the result lay.

What all share (assay type): cell-based
One experiment relates to c-Myc. Kind of experiment: c-Myc reporter gene assay (Qiagen) in HEK293T cells. The settings on record: Homo sapiens, HEK-293T, 16 h, treatment 16 hours, Firefly/Renilla ratio. As to the method:
Compound 1's activity against Myc was measured as a Firefly/Renilla ratio, using the Myc reporter assay (Qiagen) in HEK293T cells after treatment with compound 1 for 16 hours. Results are expressed as a mean+/−SD (n=3). SD: standard deviation.
Select compounds described herein that were SMM assay positives were evaluated in several versions of a c-Myc reporter gene assay, including a commercial assay from Qiagen. The compounds' activities against c-Myc were measured as a Firefly/Renilla ratio, using the Myc reporter assay (Qiagen) in HEK293T cells after treatment with the compounds for 16 hours.
A general note: In a reporter assay the amount or activity of a reporter protein is the signal.

The test system of another experiment is Namalwa cells. Put plainly: Cell viability, CELL TITER GLO assay (Promega), Namalwa cells. On the procedure:
(§1) FIGS. 2A to 2E show exemplary results of cell viability assay of compound 1. […] Results were expressed as a mean+/−SEM (n=3). RLU: Relative Luminescence Units.
(§2) The effect of compound 1 on cell viability in several cancer cell lines were determined. The cancer cell lines employed in the assay included those corresponding to hematopoietic and solid tumors. Exemplary results are shown in FIGS. 2A to 2E, where viability was assessed by CELL TITER GLO assay (Promega). Compound 1 was also submitted in a blinded fashion to the National Cancer Institute's CTD cancer cell line profiling pipeline, which enabled sensitivity profiling in about 800 cancer cell lines with annotation of specific genomic lesions that impart on human cancers (FIGS. 3A to 3B). […] The effects of other compounds described herein on cell viability in several cancer cell lines were also determined, and exemplary results are shown in Table 2, where viability was assessed by CELL TITER GLO assay (Promega).
For orientation: In ATP-based viability assays light output follows the ATP content of the culture.

In a further experiment the test system is NCIH1975 cells. Put plainly: Cell viability, CELL TITER GLO assay (Promega), NCIH1975 cells. The settings on record: Homo sapiens, NCI-H1975. As to the method: as §1, §2
In the next experiment the test system is Eu-Myc Arf −/− cells. Put plainly: Cell viability, CELL TITER GLO assay (Promega), Eu-Myc Arf −/− cells. On the procedure: as §2

For `O=C1NC(=O)/C(=C/c2ccc(Sc3nc4ccccc4[nH]3)o2)N1` [Compound 2, (Z)-5-((5-((1H-benzo[d]imidazol-2-yl)thio)furan-2-yl)methylene)imidazolidine-2,4-dione], the IC50 in the experiment on c-Myc is 7.5 µM; with Namalwa cells, above 50 µM; in the experiment with NCIH1975 cells, above 50 µM; with Eu-Myc Arf −/− cells, above 50 µM.
In the case of `CC(C)N1C(=O)S/C(=C\c2ccc(Sc3nc4ccccc4s3)o2)C1=O` [Compound 3, (Z)-5-((5-(benzo[d]thiazol-2-ylthio)furan-2-yl)methylene)-3-isopropylthiazolidine-2,4-dione], the IC50 in the experiment on c-Myc is 5.72 µM; in the experiment on Namalwa cells, 31.1 µM; with NCIH1975 cells, above 50 µM; in the experiment on Eu-Myc Arf −/− cells, above 50 µM.
As to `CC(C)N1C(=O)S/C(=C\c2ccc(Sc3nc4ccc(Cl)cc4[nH]3)o2)C1=O` [Compound 4, (Z)-5-((5-((6-chloro-1H-benzo[d]imidazol-2-yl)thio)furan-2-yl)methylene)-3-isopropylthiazolidine-2,4-dione], the IC50 with c-Myc came out at 0.79 µM; in the experiment on Namalwa cells, 12.4 µM; in the experiment on NCIH1975 cells it was 17.3 µM; in the experiment with Eu-Myc Arf −/− cells, 11 µM.
`COc1ccc2nc(Sc3ccc(/C=C4\SC(=O)N(C(C)C)C4=O)o3)[nH]c2c1` [Compound 5, (Z)-3-isopropyl-5-((5-((6-methoxy-1H-benzo[d]imidazol-2-yl)thio)furan-2-yl)methylene)thiazolidine-2,4-dione]: the IC50 in the experiment on c-Myc was 1.19 µM; with Namalwa cells, 42.1 µM; with NCIH1975 cells it was 34.5 µM; in the experiment on Eu-Myc Arf −/− cells it was above 50 µM.
For `CC(C)N1C(=O)S/C(=C\c2ccc(Sc3nc4ccccc4o3)o2)C1=O` [Compound 6, (Z)-5-((5-(benzo[d]oxazol-2-ylthio)furan-2-yl)methylene)-3-isopropylthiazolidine-2,4-dione], in that order: 9.39 µM, 37.2 µM, above 50 µM and above 50 µM.
For `CC(C)N1C(=O)N/C(=C\c2ccc(Sc3nc4ccccc4[nH]3)o2)C1=O` [Compound 8, (Z)-5-((5-((1H-benzo[d]imidazol-2-yl)thio)furan-2-yl)methylene)-3-isopropylimidazolidine-2,4-dione] the same measures were 0.83 µM, above 50 µM, above 50 µM and 11.8 µM.
For `O=C1C/C(=C\c2ccc(Sc3nc4ccccc4[nH]3)o2)C(=O)N1` [Compound 9, (E)-3-((5-((1H-benzo[d]imidazol-2-yl)thio)furan-2-yl)methylene)pyrrolidine-2,5-dione] the same measures were 9.02 µM, above 50 µM, above 50 µM and above 50 µM.
Regarding `CC(C)N1C(=O)S/C(=C\c2ccc(Sc3nc4cccnc4[nH]3)o2)C1=O` [Compound 10, (Z)-5-((5-((3H-imidazo[4,5-b]pyridin-2-yl)thio)furan-2-yl)methylene)-3-isopropylthiazolidine-2,4-dione], the IC50 in the experiment with c-Myc is 5.6 µM; with Namalwa cells, above 50 µM; in the experiment on NCIH1975 cells it was above 50 µM; in the experiment on Eu-Myc Arf −/− cells, 33.1 µM.
Consider `CC(C)N1C(=O)N/C(=C\c2ccc(Sc3nc4ccc(Cl)cc4[nH]3)o2)C1=O` [Compound 22, (Z)-5-((5-((6-chloro-1H-benzo[d]imidazol-2-yl)thio)furan-2-yl)methylene)-3-isopropylimidazolidine-2,4-dione], for which the IC50 in the experiment on c-Myc stood at 1.05 µM; in the experiment on Namalwa cells it was 16.5 µM; with NCIH1975 cells, 45.3 µM; with Eu-Myc Arf −/− cells, 6.09 µM.
For `Cc1cccc2nc(Sc3ccc(/C=C4\SC(=O)N(C(C)C)C4=O)o3)[nH]c12` [Compound 23, (Z)-3-isopropyl-5-((5-((7-methyl-1H-benzo[d]imidazol-2-yl)thio)furan-2-yl)methylene)thiazolidine-2,4-dione], in that order: 1.5 µM, 33.9 µM, 28.2 µM and 10.5 µM.
For `CC(C)N1C(=O)S/C(=C\c2ccc(Sc3nc4ccc(C(F)(F)F)cc4[nH]3)o2)C1=O` [Compound 24, (Z)-3-isopropyl-5-((5-((6-(trifluoromethyl)-1H-benzo[d]imidazol-2-yl)thio)furan-2-yl)methylene)thiazolidine-2,4-dione], in that order: 0.64 µM, 7.94 µM, 12.5 µM and 11.2 µM.
For `CC(C)N1C(=O)S/C(=C\c2ccc(Sc3nc4cc(Cl)c(Cl)cc4[nH]3)o2)C1=O` [Compound 25, (Z)-5-((5-((5,6-dichloro-1H-benzo[d]imidazol-2-yl)thio)furan-2-yl)methylene)-3-isopropylthiazolidine-2,4-dione] the same measures were 0.63 µM, 3.95 µM, 7.88 µM and 5.51 µM.
`O=C(O)CN1C(=O)S/C(=C\c2ccc(Sc3nc4ccccc4[nH]3)o2)C1=O` [Compound 26]: the IC50 in the experiment with c-Myc was 33.6 µM; in the experiment with Namalwa cells it was above 50 µM; in the experiment on NCIH1975 cells, above 50 µM; in the experiment with Eu-Myc Arf −/− cells it was above 50 µM.
Turning to `O=C(CCCC[C@H]1SC[C@H]2NC(=O)N[C@H]21)NCCCN1C(=O)S/C(=C\c2ccc(Sc3nc4ccccc4[nH]3)o2)C1=O` [Compound 27, N-(3-((Z)-5-((5-((1H-benzo[d]imidazol-2-yl)thio)furan-2-yl)methylene)-2,4-dioxothiazolidin-3-yl)propyl)-5-((3aR,4R,6aS)-2-oxohexahydro-1H-thieno[3,4-d]imidazol-4-yl)pentanamide], the concentration for half-maximal inhibition (IC50) in the experiment on c-Myc was 2.28 µM; in the experiment on Namalwa cells, 12.2 µM; in the experiment with NCIH1975 cells, above 50 µM; in the experiment on Eu-Myc Arf −/− cells it was 26 µM.
For `CC(C)N1C(=O)S/C(=C\c2ccc(Sc3nc4cccc(Cl)c4[nH]3)o2)C1=O` [Compound 28, (Z)-5-(5-(((7-chloro-H-benzo[d]imidazol-2-yl)thio)furan-2-yl)methylene)-3-isopropylthiazolidine-2,4-dione], in that order: 0.98 µM, 9.41 µM, 15.6 µM and 5.36 µM.
For `CC(C)c1ccc2nc(Sc3ccc(/C=C4\SC(=O)N(C(C)C)C4=O)o3)[nH]c2c1` [Compound 29, (Z)-3-isopropyl-5-((5-((6-isopropyl-1H-benzo[d]imidazol-2-yl)thio)furan-2-yl)methylene)thiazolidine-2,4-dione], the IC50 worked out at 0.64 µM with c-Myc, 15.3 µM in the experiment with Namalwa cells, 19.9 µM in the experiment with NCIH1975 cells and 13.1 µM in the experiment on Eu-Myc Arf −/− cells.
For `COc1cccc2nc(Sc3ccc(/C=C4\SC(=O)N(C(C)C)C4=O)o3)[nH]c12` [Compound 30, (Z)-3-isopropyl-5-((5-((7-methoxy-1H-benzo[d]imidazol-2-yl)thio)furan-2-yl)methylene)thiazolidine-2,4-dione], in that order: 1.63 µM, 72 µM, 56.3 µM and 11.1 µM.
For `OCc1ccc(Sc2nc3ccccc3[nH]2)o1` [Compound 40, (5-((1H-benzo[d]imidazol-2-yl)thio)furan-2-yl)methanol], in that order: above 40 µM, above 50 µM, above 50 µM and 14.1 µM.
`CC(C)N1C(=O)S/C(=C\c2cc3ccc(Sc4nc5ccccc5[nH]4)cc3o2)C1=O` [Compound 68, (Z)-5-((6-((1H-benzo[d]imidazol-2-yl)thio)benzofuran-2-yl)methylene)-3-isopropylthiazolidine-2,4-dione]: in the experiment with c-Myc, the concentration for half-maximal inhibition (IC50) is 0.54 µM.
